Experiments:
[1] = xn = mol fraction of the nth substance listed; conditions: 298.15 K, 101 kPa, Liquid, Vibrating tube method
[2] = refractive index (Na D-line) (dimensionless); xn = mol fraction of the nth substance listed; conditions: 298.15 K, 101 kPa, Liquid, Standard Abbe refractometry
[3] = for vapor or sublimation pressure: Transpiration method; for Normal melting temperature: DTA; for mass density: 298.15 K, 101 kPa, Vibrating tube method
[4] = Molar enthalpy of transition or fusion; conditions: Crystal; DSC
[5] = refractive index (Na D-line) (dimensionless); conditions: 298.15 K; 101.33 kPa; Liquid; Standard Abbe refractometry

Brc1ccc(Br)c2ccccc12 [1,4-dibromonaphthalene] + c1ccccc1
Conditions	mass density, x1 = 0.00087 [kg/m3]	mass density, x1 = 0.00189 [kg/m3]	mass density, x1 = 0.00208 [kg/m3]	mass density, x1 = 0.00321 [kg/m3]	refractive index, x1 = 0.00087	refractive index, x1 = 0.00189	refractive index, x1 = 0.00208	refractive index, x1 = 0.00321
[1]	875.112	876.792	877.158	879.019	–	–	–	–
[2]	–	–	–	–	1.49786	1.4982	1.49828	1.49872

ClC(Cl)(Cl)Cl [tetrachloromethane] + Clc1c(Cl)c(Cl)c(Cl)c(Cl)c1Cl
x2 = 0
Conditions	mass density [kg/m3]	refractive index
[1]	1584.26	–
[2]	–	1.45715

Brc1ccc(Br)cc1 [1,4-dibromobenzene] + c1ccccc1
Conditions	mass density, x1 = 0.0018 [kg/m3]	mass density, x1 = 0.00185 [kg/m3]	mass density, x1 = 0.0025 [kg/m3]	mass density, x1 = 0.0033 [kg/m3]	refractive index, x1 = 0.0018	refractive index, x1 = 0.00185	refractive index, x1 = 0.0025	refractive index, x1 = 0.0033
[1]	876.211	876.342	877.295	878.419	–	–	–	–
[2]	–	–	–	–	1.49781	1.49784	1.49795	1.49808

Brc1ccc(-c2ccccc2)cc1 [4-bromo-1,1'-biphenyl] + c1ccccc1
Conditions	mass density, x1 = 0.00109 [kg/m3]	mass density, x1 = 0.00186 [kg/m3]	mass density, x1 = 0.00189 [kg/m3]	mass density, x1 = 0.00237 [kg/m3]	refractive index, x1 = 0.00109	refractive index, x1 = 0.00186	refractive index, x1 = 0.00189	refractive index, x1 = 0.00237
[1]	874.692	875.469	875.45	875.983	–	–	–	–
[2]	–	–	–	–	1.49787	1.4981	1.49809	1.4982

Clc1c(Cl)c(Cl)c(Cl)c(Cl)c1Cl [hexachlorobenzene] + ClC(Cl)(Cl)Cl
Conditions	mass density, x1 = 0.00028 [kg/m3]	mass density, x1 = 0.00052 [kg/m3]	mass density, x1 = 0.00066 [kg/m3]	mass density, x1 = 0.00094 [kg/m3]	refractive index, x1 = 0.00028	refractive index, x1 = 0.00052	refractive index, x1 = 0.00066	refractive index, x1 = 0.00094
[1]	1584.37	1584.53	1584.53	1584.63	–	–	–	–
[2]	–	–	–	–	1.45724	1.45734	1.45735	1.45743

Brc1ccccc1Br [1,2-dibromobenzene]
[3], Liquid
Conditions	vapor or sublimation pressure [kPa]
290.3 K	0.01251
292.4 K	0.01408
292.5 K	0.01451
295.8 K	0.01802
298.2 K	0.02158
301.2 K	0.02661
304.2 K	0.03482
307.3 K	0.04115
310.2 K	0.05236
313.2 K	0.06399
316.3 K	0.07736
319.3 K	0.09284
320.6 K	0.09686
322.1 K	0.1075
325.2 K	0.1324
325.3 K	0.135
328.2 K	0.1579

Clc1c2ccccc2c(Cl)c2ccccc12 [9,10-dichloroanthracene]
Conditions	Normal melting temperature [°C]
[3], Crystal	213.5

Conditions	Molar enthalpy of transition or fusion [kcal/mol]
[4]	6

Brc1ccc(Br)cc1 [1,4-dibromobenzene]
[3], Crystal
Conditions	vapor or sublimation pressure [kPa]
296.5 K	0.00693
299.5 K	0.00922
302.4 K	0.01272
303.5 K	0.01383
305.4 K	0.01701
308.4 K	0.02188
309.4 K	0.02467
311.4 K	0.02936
314.4 K	0.03757
317.4 K	0.04642
319.4 K	0.05898
320.4 K	0.06313
323.4 K	0.08309
329.6 K	0.143

Brc1ccc(-c2ccc(Br)cc2)cc1 [4,4'-dibromo-1,1'-biphenyl]
[3], Crystal
Conditions	vapor or sublimation pressure [kPa]
358.1 K	0.00038
363.9 K	0.00067
365.4 K	0.00077
368.4 K	0.00099
373.5 K	0.00162
378.5 K	0.00243
383.5 K	0.00367
388.6 K	0.00579
393.3 K	0.00851
396.6 K	0.01049
399.6 K	0.0138
400.4 K	0.0144
402.6 K	0.0171
404.4 K	0.02039

c1ccccc1 [benzene] + Brc1ccc(-c2ccccc2)cc1
x2 = 0
Conditions	mass density [kg/m3]	refractive index
[1]	873.616	–
[2]	–	1.49755

c1ccccc1 [benzene] + Brc1ccc(Br)c2ccccc12
x2 = 0
Conditions	mass density [kg/m3]	refractive index
[1]	873.652	–
[2]	–	1.49755

c1ccccc1 [benzene]
Conditions	refractive index
[5]	1.49755

Conditions	mass density
[3], Liquid	873.633 kg/m3 [middle of 6 runs]

Brc1ccc(-c2ccc(Br)cc2)cc1 [4,4'-dibromo-1,1'-biphenyl] + c1ccccc1
Conditions	mass density, x1 = 0.00076 [kg/m3]	mass density, x1 = 0.0009 [kg/m3]	mass density, x1 = 0.00107 [kg/m3]	mass density, x1 = 0.00116 [kg/m3]	refractive index, x1 = 0.00076	refractive index, x1 = 0.0009	refractive index, x1 = 0.00107	refractive index, x1 = 0.00116
[1]	875.001	875.213	875.48	875.632	–	–	–	–
[2]	–	–	–	–	1.49787	1.49791	1.49796	1.49802

Brc1c2ccccc2c(Br)c2ccccc12 [9,10-dibromoanthracene]
Conditions	Normal melting temperature [°C]
[3], Crystal	224.7

Conditions	Molar enthalpy of transition or fusion [kcal/mol]
[4]	6.86

Brc1ccccc1Br [1,2-dibromobenzene] + c1ccccc1
Conditions	mass density, x1 = 0.00278 [kg/m3]	mass density, x1 = 0.00365 [kg/m3]	mass density, x1 = 0.00738 [kg/m3]	mass density, x1 = 0.01251 [kg/m3]	refractive index, x1 = 0.00278	refractive index, x1 = 0.00365	refractive index, x1 = 0.00738	refractive index, x1 = 0.01251
[1]	877.563	878.834	884.292	891.807	–	–	–	–
[2]	–	–	–	–	1.49816	1.49829	1.49882	1.49961

c1ccccc1 [benzene] + Brc1ccc(Br)cc1
x2 = 0
Conditions	mass density [kg/m3]	refractive index
[1]	873.671	–
[2]	–	1.49755

c1ccccc1 [benzene] + Brc1ccccc1Br
x2 = 0
Conditions	mass density [kg/m3]	refractive index
[1]	873.478	–
[2]	–	1.49776

Brc1ccc(Br)c2ccccc12 [1,4-dibromonaphthalene]
Conditions	Normal melting temperature [°C]
[3], Crystal	80.0

Conditions	Molar enthalpy of transition or fusion [kcal/mol]
[4]	5.04

c1ccccc1 [benzene] + Clc1ccc(Br)cc1
x2 = 0
Conditions	mass density [kg/m3]	refractive index
[1]	873.613	–
[2]	–	1.49755

Clc1c2ccccc2cc2ccccc12 [9-chloroanthracene]
Conditions	Normal melting temperature [°C]
[3], Crystal	103.5

Conditions	Molar enthalpy of transition or fusion [kcal/mol]
[4]	5.26

Brc1cccc(Br)c1 [1,3-dibromobenzene]
[3], Liquid
Conditions	vapor or sublimation pressure [kPa]
276.4 K	0.00508
278.7 K	0.00646
281.1 K	0.00785
282.3 K	0.0086
284.7 K	0.01072
286.9 K	0.01274
288.8 K	0.01468
289.2 K	0.0154
292.3 K	0.01899
292.8 K	0.01997
295 K	0.02324
296.2 K	0.02592
298.8 K	0.03143
301 K	0.03698
301.1 K	0.03822
304.2 K	0.04771
304.9 K	0.0474
307.2 K	0.05893
308.9 K	0.06635
310 K	0.07138
312.9 K	0.08294
313.3 K	0.08608
315.2 K	0.1012
317.8 K	0.1178

Clc1ccc(Br)cc1 [1-bromo-4-chlorobenzene] + c1ccccc1
Conditions	mass density, x1 = 0.00231 [kg/m3]	mass density, x1 = 0.00253 [kg/m3]	mass density, x1 = 0.00268 [kg/m3]	refractive index, x1 = 0.00231	refractive index, x1 = 0.00253	refractive index, x1 = 0.00268
[1]	875.875	876.093	876.25	–	–	–
[2]	–	–	–	1.49779	1.49781	1.49782

c1ccccc1 [benzene] + Brc1ccc(-c2ccc(Br)cc2)cc1
x2 = 0
Conditions	mass density [kg/m3]	refractive index
[1]	873.633	–
[2]	–	1.49755

ClC(Cl)(Cl)Cl [tetrachloromethane]
Conditions	refractive index
[5]	1.45715

Conditions	mass density [kg/m3]
[3], Liquid	1584.26

Brc1ccc(-c2ccccc2)cc1 [4-bromo-1,1'-biphenyl]
[3], Crystal
Conditions	vapor or sublimation pressure [kPa]
303.2 K	9e-05
308.2 K	0.00016
313 K	0.00027
318.3 K	0.00048
323.4 K	0.00083
326.2 K	0.00109
328.2 K	0.00137
333.3 K	0.0023
338.3 K	0.00364
343.1 K	0.0056
348.3 K	0.00907
353 K	0.01426
355.7 K	0.0165
358.4 K	0.02207
360.2 K	0.0253

Conditions	Normal melting temperature [°C]
[3], Crystal	89.0

Conditions	Molar enthalpy of transition or fusion [kcal/mol]
[4]	3.9

— the NIST ThermoML archive (doi:10.1021/je5008795)
